From patent publication US20090162372A1, “FIBRONECTIN ED-B ANTIBODIES, CONJUGATES THEREOF, AND METHODS OF USE” (Medarex, Inc., priority 2007, published 2009)

Key:
[1] = experimental animals; cited from earlier work
[2] = system: LNCaP/prostate stroma coculture tumors; test: Efficacy against LNCaP/prostate stroma coculture tumors in SCID mice (tumor volume); assay type: in vivo, CB17.SCID mice; conditions: naked antibody 30 mg/kg IP SD on Day 0; to Day 62; FIG. 4
Protocol: In order to determine the efficacy of anti-RG-1 and ED-B-cytotoxin conjugates (using the cytotoxin/linker of formula (m)), LNCaP xenografts were performed as follows: 120 CB17.SCID mice were each subcutaneously injected with 2 million LNCaP cells and 1 million prostate stroma cells (cat# CC-2508, Cambrex Bio Science Walkersville, Inc, Walkersville, Md.) resuspended in 0.2 ml of PBS/Matrigel (1:1) (BD Bioscience) at the flank region. This LNCaP/Stroma model expresses high levels of PMSA on the cell surface, high levels of RG-1 in the stroma, and low levels of ED-B in the stroma. CD70 is used as an isotype control as the xenographs are negative for CD70. Mice were weighed and measured for tumors three dimensionally using an electronic caliper once weekly after implantation. Tumor volumes were calculated as height×width×length/2. Mice with tumors averaging 50 mm^3 were randomized into 16 treatment groups of seven mice on Day-1 and mice were treated intraperitoneally with vehicle, antibody, or antibody-cytotoxin conjugate according to the dosing regimen described in Table 1 on Day 0, Studies were terminated at Day 62.

## COc1c(O)c2c(c3cc(C(=O)N4CCc5c4c(O)c(OC)c4[nH]c(C(=O)N6CC7CC78C6=CC(=O)c6[nH]cc(C)c68)cc54)[nH]c13)CCN2C(N)=O (centres unmarked) [CC-1065]
[1]
  delayed death: causes delayed death in experimental animals

B1: anti-ED-B: human monoclonal antibody 1C5 binding fibronectin ED-B, VH SEQ ID NO: 7, VL SEQ ID NO: 8; naked antibody (antibody, listed as Homo sapiens, V domains shown)
VH: EVQLVESGGGLVQPGGSLRLSCAASGFTFSSYSMNWVRQAPGKGLEWVSYISSSSRAIYYADSVKGRFTISRDNAKNSLYLQMNSLRDEDTAVYYCARARYFDWLWYYWGQGTLVTVSS
VL: EIVLTQSPGTLSLSPGERATLSCRASQSVSSSYLAWYQQEPGQAPRLLIYGASSRATGIPDRFSGSGSGTDFTLTISRLEPEDFAVYYCQQRSNWPPTFGQGTKVEIK
[2]
  effect on tumor growth (median tumor volume): no inhibitory effect on tumor growth
